How the values were obtained:
[1] = target: recombinant human (RH) DPP1 (Homo sapiens (Human), UniProt P53634); experiment: Test A1: Fluorescence Assay for Recombinant Human (RH) DPP1; assay type: biochemical; conditions: Test A1 (Examples 1-35); rhDPP1 ~50 pM, 100 µM H-Gly-Arg-AMC, 22° C.
Description: Test A1: Fluorescence Assay for Recombinant Human (RH) DPP1
The activity of DPP1 was determined by measuring the enzymatic release of aminomethyl coumarin (AMC) from the peptide substrate (H-Gly-Arg-AMC), which leads to an increase in fluorescence intensity at λex =350 nm and λem =450 nm. The assay was carried out in black 384 well plates in a final volume of 50 µl at 22° C. The assay conditions contained the following: 25 mM piperazine buffer pH 5.0; 50 mM NaCl, 5 mM DTT; 0.01% (v/v) Triton X-100; 100 µMH-Gly-Arg-AMC and rhDPP1 (~50 pM). […] Routinely, inhibitors were pre-incubated with rhDPP1 for 30-60 min prior to the addition of the peptide substrate to start the reaction for a further 60 min at 22° C.

[2] = Test B: In-vitro Competitive Aortic Tissue Binding Assay; parameters: species or system Han Wistar rats; conditions: 100 µM compound, competition with [14C]-labelled WO2010/128324 Ex. 3, categories strong binder, medium binder, no binder
Description: To assist the design of DPP1 inhibitors with a decreased risk of binding to elastin rich tissues, such as the aorta, the in-vitro competitive aortic binding assay disclosed below (Test B) was developed to facilitate the selection process.
Test B: In-vitro Competitive Aortic Tissue Binding Assay
Aortic homogenate was prepared from the thoracic aortae of Han Wistar rats. Freshly isolated thoracic aortae were frozen, and later thawed and stripped of non-elastic material. […] Homogenate concentration was adjusted to 30 mg/mL in Puck’s saline, and aliquots were stored at -80° C. until use. Positive and negative control compounds and test compounds were made up to 100 mM in DMSO, and added to 1 mL aliquots of aortic homogenate in Puck’s saline for a final concentration of 100 µM. Homogenate samples were pre-incubated with test compounds at 37° C., rotating, overnight. [^14C]4-Amino-N-[(1S)-1-cyano-2-(4′-cyanobiphenyl-4-yl)ethyl]tetrahydro-2H-pyran-4-carboxamide was then added to all samples to a final concentration of 100 µM, and samples were incubated at 37° C., rotating, for a further 2 h. Protein was precipitated from each sample by the addition of 10 mL acetone, prechilled to -20° C. Samples were left overnight at -20° C. to allow complete precipitation. […] Precipitate was washed by resuspension in 10 mL 80% methanol in distilled water, and re-pelleted by centrifugation at 4,500 × g at 4° C. for 20 min. […] After final wash, precipitate was air-dried, and dissolved overnight in 1 mL NCSII Tissue Solubiliser. 1 mL aliquots of supernatants were added to 5 mL Ultima Gold scintillation fluid (Perkin Elmer, MA, U.S.A.), and 1 mL solubilised pellets were added to 5 mL Hionic-Fluor scintillation fluid (Perkin Elmer, MA, U.S.A.). Radioactivity of samples was determined on a Beckman LS6500 multipurpose scintillation counter (Beckman Coulter, IN, U.S.A.). […] Duplicate samples were tested for each compound on each experimental occasion, and at least two experiments were run for each test compound. […] 1-way ANOVA and Bonferroni’s multiple comparison tests were performed to calculate significance of differences from vehicle control.

[3] = rat quantitative whole-body autoradiography (QWBA) studies; assay type: in vivo
[4] = QWBA studies, literature (Schmidt et al. 1984); cited from earlier work

Sequence of recombinant human (RH) DPP1 (P53634 231-394): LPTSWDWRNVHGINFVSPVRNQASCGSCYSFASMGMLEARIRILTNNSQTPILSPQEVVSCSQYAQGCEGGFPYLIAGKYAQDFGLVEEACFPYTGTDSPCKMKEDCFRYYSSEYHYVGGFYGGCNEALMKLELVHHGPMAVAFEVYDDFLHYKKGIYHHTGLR
Sequence of recombinant human (RH) DPP1 (P53634 25-143): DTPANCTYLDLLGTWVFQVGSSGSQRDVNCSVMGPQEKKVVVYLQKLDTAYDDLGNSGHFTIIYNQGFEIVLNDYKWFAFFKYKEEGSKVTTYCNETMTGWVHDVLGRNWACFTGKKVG
Sequence of recombinant human (RH) DPP1 (P53634 395-463): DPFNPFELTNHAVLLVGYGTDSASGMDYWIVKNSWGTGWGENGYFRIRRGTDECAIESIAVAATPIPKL

SMILES | DPP1 activity, pIC50 [1] | Aortic Tissue Binding [2] | also measured
N#Cc1ccc(-c2ccc(C[C@@H](C#N)NC(=O)[C@@H]3CNCCCO3)cc2)cc1 [Example 1, (2S)-N-[(1S)-1-Cyano-2-(4′-cyanobiphenyl-4-yl)ethyl]-1,4-oxazepane-2-carboxamide] | 7.45 | – | –
Cn1c(=O)oc2ccc(-c3ccc(C[C@@H](C#N)NC(=O)[C@@H]4CNCCCO4)cc3)cc21 [Example 2, (2S)-N-{(1S)-1-cyano-2-[4-(3-methyl-2-oxo-2,3-dihydro-1,3-benzoxazol-5-yl)phenyl]ethyl}-1,4-oxazepane-2-carboxamide] | – | No binder | –
Cc1cc(-c2ccc(C[C@@H](C#N)NC(=O)[C@@H]3CNCCCO3)cc2)cc2c1oc(=O)n2C [Example 3, (2S)-N-{(1S)-1-Cyano-2-[4-(3,7-dimethyl-2-oxo-2,3-dihydro-1,3-benzoxazol-5-yl)phenyl]ethyl}-1,4-oxazepane-2-carboxamide] | 7.99 | – | –
CS(=O)(=O)Oc1cccc(-c2ccc(C[C@@H](C#N)NC(=O)[C@@H]3CNCCCO3)cc2)c1 [Example 4, 4′-[(2S)-2-Cyano-2-{[(2S)-1,4-oxazepan-2-ylcarbonyl] Amino}ethyl] Biphenyl-3-yl methanesulfonate] | 7.1 | – | –
N#Cc1ccc(-c2ccc(C[C@@H](C#N)NC(=O)[C@@H]3CCCCN3)cc2)cc1 [WO2009/074829 (Example 24)] | – | Binder | –
Cn1c(=O)oc2ccc(-c3ccc(C[C@@H](C#N)NC(=O)[C@@H]4CCCCN4)cc3)cc21 [WO2009/074829 (Example 96)] | – | Medium binder | –
N#Cc1ccc(-c2ccc(C[C@@H](C#N)NC(=O)C3(N)CCOCC3)cc2)cc1 [WO2010/128324 (Ex. 3), 4-amino-N-[(1S)-1-cyano-2-(4′-cyanobiphenyl-4-yl)ethyl]tetrahydro-2H-pyran-4-carboxamide] | – | Strong binder (reference) | aortic retention [3]: high level of aortic retention
Cn1c(=O)oc2ccc(-c3ccc(C[C@@H](C#N)NC(=O)C4(N)CCOCC4)cc3)cc21 [WO2010/128324 (Example 17)] | – | Strong binder | –
CC(c1ccc(Cl)c(Cl)c1)N1N=C(N)CC1=O (stereo not shown) [muzolimine] | – | – | retention in the aorta [4]: retained selectively in the aorta
